Tests used:
[1] = system: electric fibrillation threshold of the auricle and ventricle; experiment: antiarrhythmial effect: change of electric fibrillation threshold in chloralose-urethane anaesthetized cats; type: in vivo; settings: 2 mg/kg i.v.
Protocol: The antiarrhythmial effect is determined on chloralose-urethane anaesthetized cats [500/300 mg/kg i.p.] by measuring the changes of the electric fibrillation threshold of the auricle and ventricle respectively [method of Szekeres, Méhes and Papp: Brit. 0. Pharmacol. 17, 167 (1961) and that of Szekeres and Papp: Hdb. exp. Pharmacol. 16/3, 131 (1975) respectively]. The general effects exerted on the haemodynamic and cardiovascular system are tested on pentobarbital anaesthetized dogs (35 mg/kg i.v.).

[2] = acute toxicity on mice; settings: mouse, in vivo, po
Excerpt: (§1) The acute toxicity of the compound of the Formula I is characterized by the data enumerated in Table 3.

[3] = acute toxicity on rats; settings: rat, in vivo
Excerpt: as §1

[4] = system: haemodynamic and cardiovascular system; experiment: general effects on the haemodynamic and cardiovascular system in pentobarbital anaesthetized dogs; type: in vivo; set-up: A. vertebralis flow, Changed value: unit not given here; settings: 2 mg/kg i.v.
[5] = system: acute coronary insufficiency induced by vasopressine; experiment: anti-angina activity: inhibition of vasopressine-induced acute coronary insufficiency (rise of T-wave on ECG), method of Papp and Szekeres; type: in vivo, rats belonging to the CFY strain; settings: vasopressine 2 IU/kg i.v., pentobarbital anaesthetized CFY rats; papaverin = 1

**Q.** Which results are given for `CCOc1ccc(CC2=NCCc3cc(OCC)c(OCC)cc32)cc1O` [Formula I, 6,7-diethoxy-1-(4-ethoxy-3-hydroxy-benzyl)-3,4-dihydro-isoquinoline]?
**A.** Arterial blood pressure, Duration of effect [1]: 9 min; Arterial blood pressure, Percental difference [1]: -43; Auricle fibrillation threshold, Duration of effect [1]: 11 min; Auricle fibrillation threshold, Percental difference [1]: +58; Ventricle fibrillation threshold, Duration of effect [1]: 13 min; Ventricle fibrillation threshold, Percental difference [1]: +25; Auricle fibrillation threshold, Changed value ([1]; average ± S.E., basic value 0.73 ± 0.10): 1.15 ± 0.11 mA; Ventricle fibrillation threshold, Changed value ([1]; average ± S.E., basic value 2.07 ± 0.10): 2.58 ± 0.09 mA; Arterial blood pressure, Changed value ([1]; average ± S.E., basic value 139 ± 5): 79 ± 8 Hgmm; LD50 ([2]; p.o. on mice ♀): 165 mg/kg; LD50 ([2]; p.o. on mice ♂): 269 mg/kg; LD50 ([3]; iv, i.v. on rats ♀): 24.9 mg/kg; LD50 ([3]; iv, i.v. on rats ♂): 23 mg/kg; LD50 ([3]; po, p.o. on rats ♀): 625 mg/kg; LD50 ([3]; po, p.o. on rats ♂): 493 mg/kg; A. carotis flow, Duration of effect [4]: 7 min; A. carotis flow, Percental difference [4]: +27; A. carotis resistance, Duration of effect [4]: 7 min; A. carotis resistance, Percental difference [4]: -13; A. femoralis flow, Duration of effect [4]: 3 min; A. femoralis flow, Percental difference [4]: +44; A. femoralis resistance, Duration of effect [4]: 3 min; A. femoralis resistance, Percental difference [4]: -45; A. vertebralis flow, Duration of effect [4]: 2 min; A. vertebralis flow, Percental difference [4]: +51; A. vertebralis resistance, Duration of effect [4]: 2 min; A. vertebralis resistance, Percental difference [4]: -45; Arterial blood pressure, Duration of effect [4]: 5 min; Arterial blood pressure, Percental difference [4]: -22; Contractibility of the left ventricle (dP/dt), Duration of effect [4]: 2 min; Contractibility of the left ventricle (dP/dt), Percental difference [4]: -17; Coronary flow, Duration of effect [4]: 16 min; Coronary flow, Percental difference [4]: +36; Coronary resistance, Duration of effect [4]: 15 min; Coronary resistance, Percental difference [4]: -34; Efficiency of cardial function, Duration of effect [4]: 6 min; Efficiency of cardial function, Percental difference [4]: +45; Frequence volume, Duration of effect [4]: 35 min; Frequence volume, Percental difference [4]: +60; Function of the left ventricle, Duration of effect [4]: 7 min; Function of the left ventricle, Percental difference [4]: -20; Heart frequence/min, Duration of effect [4]: 31 min; Heart frequence/min, Percental difference [4]: -22; Minute volume, Duration of effect [4]: 4 min; Minute volume, Percental difference [4]: +11; Myocardial oxygenization (O2 supply per O2 consumption), Duration of effect [4]: 30 min; Myocardial oxygenization (O2 supply per O2 consumption), Percental difference [4]: +74; Oxygen consumption of the left ventricle, Duration of effect [4]: 22 min; Oxygen consumption of the left ventricle, Percental difference [4]: -29; Total peripherial resistance, Duration of effect [4]: 5 min; Total peripherial resistance, Percental difference [4]: -23; Efficiency of cardial function, Changed value ([4]; average ± S.E., basic value 0.11 ± 0.02): 0.16 ± 0.02 mkg/ml/100 g; Coronary resistance, Changed value ([4]; average ± S.E., basic value 1.16 ±0.06): 0.76 ± 0.06 Hgmm/ml/min/100 g; Function of the left ventricle, Changed value ([4]; average ± S.E., basic value 1.24 ± 0.08): 0.99 ± 0.16 mkg/min; Myocardial oxygenization (O2 supply per O2 consumption), Changed value ([4]; average ± S.E., basic value 1.70 ± 0.07): 2.95 ± 0.21; A. carotis resistance, Changed value ([4]; average ± S.E., basic value 2.33 ± 0.23): 2.02 ± 0.32 Hgmm/ml/min; A. vertebralis resistance, Changed value ([4]; average ± S.E., basic value 3.28 ± 0.33): 1.81 ± 0.17 Hgmm/ml/min; A. femoralis resistance, Changed value ([4]; average ± S.E., basic value 4.84 ± 0.86): 2.66 ± 0.42 Hgmm/ml/min; Frequence volume, Changed value ([4]; average ± S.E., basic value 5.5 ± 0.3): 8.8 ± 0.9 mL; Oxygen consumption of the left ventricle, Changed value ([4]; average ± S.E., basic value 11.6 ± 0.9): 8.2 ± 1.2 ml/min/100 g; A. femoralis flow, Changed value ([4]; average ± S.E., basic value 34 ± 7): 49 ± 10 mL/min; A. vertebralis flow, Changed value ([4]; average ± S.E., basic value 43 ± 6): 65 ± 9; A. carotis flow, Changed value ([4]; average ± S.E., basic value 70 ± 7): 89 ± 13 mL/min; Coronary flow, Changed value ([4]; average ± S.E., basic value 95 ± 5): 129 ± 9 ml/min/100 g; Arterial blood pressure, Changed value ([4]; average ± S.E., basic value 121 ± 5): 94 ± 4 Hgmm; Heart frequence/min, Changed value ([4]; average ± S.E., basic value 146 ± 8): 114 ± 9 min⁻¹; Minute volume, Changed value ([4]; average ± S.E., basic value 875 ± 42): 975 ± 34 mL/min; Contractibility of the left ventricle (dP/dt), Changed value ([4]; average ± S.E., basic value 5105 ± 434): 4248 ± 865 Hgmm/sec; Total peripherial resistance, Changed value ([4]; average ± S.E., basic value 10652 ± 991): 8185 ± 748 dyn. sec. cm^-5; anti-angina activity related to that of papaverin [5]: 1.40

From patent EP0067711A2, “New 1-benzyl-3,4-dihydro-isoquinoline derivative” (CHINOIN Gyogyszer és Vegyészeti Termékek Gyára RT., priority 1981, dated 1982)
